Where only a bound is given, the exact number is not on record here.

The target in one assay is T1, CDK9/cyclin T1(h) (Homo sapiens, UniProt P50750).
T1 construct: purchased Eurofins KinaseProfiler (Eurofins Cerep)
The assay can be described thus: Eurofins KinaseProfiler radiometric kinase assay. It counts as biochemical. The note with it: for remaining activity at 10 µM: read-out: CDK9/cyclin T1(h) % Residual activity.

Another assay deals with T2, Mnk2(h) (Homo sapiens, UniProt Q9HBH9).
T2 construct: purchased Eurofins KinaseProfiler (Eurofins Cerep)
Nature of the assay: Eurofins KinaseProfiler radiometric kinase assay. The note with it: read-out: Mnk2(h) % Residual activity. It counts as biochemical.

In assay [1] the test system is primary rat cerebellar granule neurons (CGNs). Nature of the assay: Neuroprotection in CGNs, serum/potassium deprivation (MTT). It counts as cell-based. The note with it: 5, 10, and 25 μM, 48 h. An excerpt: First, we evaluated the neuroprotective properties of the selected compounds in the same cell line, once the expression of Fyn and GSK-3β in this cellular model was verified (Figure S2), after a serum/potassium deprivation experiment, which simulates physiological aging (and mortality), triggering around 20% of cell death. In particular, 7 days differentiated CGNs were exposed to serum-free BME medium with low extracellular concentration of K^+ ions and treated at selected doses (i.e., 5, 10, and 25 μM) of compounds for 48 h. Neuronal viability was then determined with an MTT assay.
To evaluate the neuroprotective effect of our compounds, we tested increasing concentrations (5 μM, 10 μM, 25 μM) of compounds of interest in differentiated CGNs switched to serum-free BME medium with 5 mM KCl (serum-potassium deprivation) for 48 h to mimic in vitro the naturally occurring death of granule cells. Neuroprotection was evaluated through MTT assay.
For MTT assay, thiazolyl blue was added to the culture medium at a final concentration of 0.1 mg/mL. Following a 20 min incubation at 37 °C in the dark, the MTT precipitate was dissolved in 0.1 M Tris–HCl pH 7.5 buffer containing 5% Triton X-100 (all from Sigma-Aldrich) and absorbance was read at 570 nm in a microplate spectrophotometric reader (Bio-Rad).

The target of the next assay is T3, PI3 Kinase (p120γ)(h) (Homo sapiens, UniProt P48736).
T3 construct: purchased Eurofins (Eurofins Cerep) KinaseProfiler
The assay can be described thus: Eurofins KinaseProfiler radiometric kinase assay. The format is biochemical. The note with it: read-out: PI3 Kinase (p120γ)(h) % Residual activity.

The target in another assay is T4, mTOR(h) (Homo sapiens, UniProt P42345).
T4 construct: purchased Eurofins KinaseProfiler (Eurofins Cerep)
The assay can be described thus: Eurofins KinaseProfiler radiometric kinase assay. The format is biochemical. The note with it: read-out: mTOR(h) % Residual activity.

The next assay deals with T5, MAPKAP-K2(h) (Homo sapiens, UniProt P49137).
T5 construct: purchased Eurofins KinaseProfiler (Eurofins Cerep)
The assay can be described thus: Eurofins KinaseProfiler radiometric kinase assay. The format is biochemical. The note with it: read-out: MAPKAP-K2(h) % Residual activity.

For another assay, the target named is T6, MST1(h) (Homo sapiens, UniProt Q13043).
T6 construct: purchased Eurofins KinaseProfiler (Eurofins Cerep)
The assay can be described thus: Eurofins KinaseProfiler radiometric kinase assay. The format is biochemical. The note with it: read-out: MST1(h) % Residual activity.

Another assay has as its target T7, PKCθ(h) (Homo sapiens, UniProt Q04759).
T7 construct: purchased Eurofins KinaseProfiler (Eurofins Cerep)
The assay can be described thus: Eurofins KinaseProfiler radiometric kinase assay. The format is biochemical. The note with it: read-out: PKCθ(h) % Residual activity.

Another assay addresses T8, IKKα(h) (Homo sapiens, UniProt O15111).
T8 construct: purchased Eurofins KinaseProfiler (Eurofins Cerep)
The assay can be described thus: Eurofins KinaseProfiler radiometric kinase assay. It counts as biochemical. The note with it: read-out: IKKα(h) % Residual activity.

In the next assay the target is T9, LOK(h) (Homo sapiens, UniProt O94804).
T9 construct: purchased Eurofins KinaseProfiler (Eurofins Cerep)
The assay can be described thus: Eurofins KinaseProfiler radiometric kinase assay. The format is biochemical. The note with it: for LOK inhibition: 10 µM; for remaining activity at 10 µM: read-out: LOK(h) % Residual activity.

The target of a further assay is T10, PRAK(h) (Homo sapiens, UniProt Q8IW41).
T10 construct: purchased Eurofins KinaseProfiler (Eurofins Cerep)
The assay can be described thus: Eurofins KinaseProfiler radiometric kinase assay. The format is biochemical. The note with it: read-out: PRAK(h) % Residual activity.

Assay [2] has as its system immortalized murine microglia N9. Nature of the assay: Immunomodulation in LPS-treated N9 microglia, Western blot of iNOS and TREM2. The note with it: 2.5 and 5 μM; 100 ng/mL LPS, 24 h. (In general: A western blot detects proteins with antibodies after separation by electrophoresis.)
Protocol: To gain a conclusive answer on the potential role of these kinase inhibitors in counteracting neuroinflammatory processes, after the verified induced astrocytic polarization, the ability of selected compounds to modulate inflammatory response was analyzed by favoring the immunomodulatory switch from neurotoxic M1 phenotype of microglia to phagocytic and neuroprotective M2 phenotype, evaluating inducible nitric oxide synthase (iNOS) and TREM2 as M1 and M2 markers (Figure ).
The microglial phenotype was evaluated through Western blot analysis of the pro-inflammatory iNOS and anti-inflammatory-TREM2 markers.
The next assay deals with T11, TAK1(h) (Homo sapiens, UniProt O43318).
T11 construct: purchased Eurofins (Eurofins Cerep) KinaseProfiler
Nature of the assay: Eurofins KinaseProfiler radiometric kinase assay. The format is biochemical. The note with it: read-out: TAK1(h) % Residual activity.

For the next assay, the target named is T12, CDK1/cyclinB(h) (Homo sapiens, UniProt P06493).
T12 construct: purchased Eurofins KinaseProfiler (Eurofins Cerep)
Nature of the assay: Eurofins KinaseProfiler radiometric kinase assay. The format is biochemical. The note with it: read-out: CDK1/cyclinB(h) % Residual activity.

Another assay deals with T13, EGFR(h) (Homo sapiens, UniProt P00533).
T13 construct: purchased Eurofins KinaseProfiler (Eurofins Cerep)
The assay can be described thus: Eurofins KinaseProfiler radiometric kinase assay. It counts as biochemical. The note with it: read-out: EGFR(h) % Residual activity.

A further assay has as its target T14, Rse(h) (Homo sapiens, UniProt Q06418).
T14 construct: purchased Eurofins (Eurofins Cerep) KinaseProfiler
The assay can be described thus: Eurofins KinaseProfiler radiometric kinase assay. The note with it: read-out: Rse(h) % Residual activity. The format is biochemical.

T1 sequence (P50750 whole entry): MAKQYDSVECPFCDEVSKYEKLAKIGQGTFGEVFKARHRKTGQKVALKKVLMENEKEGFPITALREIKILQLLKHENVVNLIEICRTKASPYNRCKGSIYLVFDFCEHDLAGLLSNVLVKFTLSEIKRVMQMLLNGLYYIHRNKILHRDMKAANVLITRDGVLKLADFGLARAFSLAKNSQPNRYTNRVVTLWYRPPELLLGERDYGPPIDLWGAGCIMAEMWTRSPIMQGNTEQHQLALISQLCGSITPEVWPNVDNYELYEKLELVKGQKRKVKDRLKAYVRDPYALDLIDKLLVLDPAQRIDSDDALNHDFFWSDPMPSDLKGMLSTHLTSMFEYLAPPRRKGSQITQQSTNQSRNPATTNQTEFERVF
T1 sequence (O60563 whole entry partner): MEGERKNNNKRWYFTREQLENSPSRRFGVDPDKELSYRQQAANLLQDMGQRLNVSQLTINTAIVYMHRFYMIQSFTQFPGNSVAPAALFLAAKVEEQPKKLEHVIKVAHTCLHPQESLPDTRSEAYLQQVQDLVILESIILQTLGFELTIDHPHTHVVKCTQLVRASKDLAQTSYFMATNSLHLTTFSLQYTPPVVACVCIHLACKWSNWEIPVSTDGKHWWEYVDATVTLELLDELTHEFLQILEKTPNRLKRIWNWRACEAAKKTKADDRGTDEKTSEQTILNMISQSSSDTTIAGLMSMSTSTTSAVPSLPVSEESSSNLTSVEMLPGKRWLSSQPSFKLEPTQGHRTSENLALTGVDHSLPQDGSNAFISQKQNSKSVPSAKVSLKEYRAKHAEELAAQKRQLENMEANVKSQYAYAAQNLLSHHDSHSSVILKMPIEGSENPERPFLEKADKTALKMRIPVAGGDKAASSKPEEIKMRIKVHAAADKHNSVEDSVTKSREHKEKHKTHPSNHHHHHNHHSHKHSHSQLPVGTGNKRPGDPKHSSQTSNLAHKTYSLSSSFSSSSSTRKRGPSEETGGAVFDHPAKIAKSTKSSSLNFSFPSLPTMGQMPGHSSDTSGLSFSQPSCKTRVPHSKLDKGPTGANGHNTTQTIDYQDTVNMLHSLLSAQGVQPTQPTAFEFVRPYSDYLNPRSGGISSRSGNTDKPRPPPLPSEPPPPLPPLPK
T9 sequence (O94804 whole entry): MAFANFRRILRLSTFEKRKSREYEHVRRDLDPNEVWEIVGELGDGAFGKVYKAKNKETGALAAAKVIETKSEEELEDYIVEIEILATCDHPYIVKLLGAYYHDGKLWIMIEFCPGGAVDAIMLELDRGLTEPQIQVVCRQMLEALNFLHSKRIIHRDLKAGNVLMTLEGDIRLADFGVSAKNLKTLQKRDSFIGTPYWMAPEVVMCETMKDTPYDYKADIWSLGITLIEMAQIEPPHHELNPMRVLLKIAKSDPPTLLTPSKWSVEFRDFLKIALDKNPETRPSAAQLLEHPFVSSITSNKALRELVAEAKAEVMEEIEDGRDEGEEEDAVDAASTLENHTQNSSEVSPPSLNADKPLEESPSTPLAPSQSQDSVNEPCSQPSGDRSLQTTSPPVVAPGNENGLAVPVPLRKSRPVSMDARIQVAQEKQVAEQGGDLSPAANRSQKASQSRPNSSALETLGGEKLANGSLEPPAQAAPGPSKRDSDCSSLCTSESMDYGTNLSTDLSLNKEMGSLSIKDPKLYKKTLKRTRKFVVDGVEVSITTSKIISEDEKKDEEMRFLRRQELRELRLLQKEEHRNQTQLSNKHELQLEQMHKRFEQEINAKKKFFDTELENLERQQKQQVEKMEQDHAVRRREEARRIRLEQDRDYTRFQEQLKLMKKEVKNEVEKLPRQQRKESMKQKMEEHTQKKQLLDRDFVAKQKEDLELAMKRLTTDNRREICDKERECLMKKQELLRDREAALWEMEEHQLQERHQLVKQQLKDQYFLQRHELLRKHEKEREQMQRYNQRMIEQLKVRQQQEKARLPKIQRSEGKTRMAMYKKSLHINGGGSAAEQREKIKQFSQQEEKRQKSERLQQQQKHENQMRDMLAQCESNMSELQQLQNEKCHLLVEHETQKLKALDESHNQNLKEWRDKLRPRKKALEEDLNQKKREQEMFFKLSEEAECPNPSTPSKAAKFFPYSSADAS
T3 sequence (P48736 whole entry): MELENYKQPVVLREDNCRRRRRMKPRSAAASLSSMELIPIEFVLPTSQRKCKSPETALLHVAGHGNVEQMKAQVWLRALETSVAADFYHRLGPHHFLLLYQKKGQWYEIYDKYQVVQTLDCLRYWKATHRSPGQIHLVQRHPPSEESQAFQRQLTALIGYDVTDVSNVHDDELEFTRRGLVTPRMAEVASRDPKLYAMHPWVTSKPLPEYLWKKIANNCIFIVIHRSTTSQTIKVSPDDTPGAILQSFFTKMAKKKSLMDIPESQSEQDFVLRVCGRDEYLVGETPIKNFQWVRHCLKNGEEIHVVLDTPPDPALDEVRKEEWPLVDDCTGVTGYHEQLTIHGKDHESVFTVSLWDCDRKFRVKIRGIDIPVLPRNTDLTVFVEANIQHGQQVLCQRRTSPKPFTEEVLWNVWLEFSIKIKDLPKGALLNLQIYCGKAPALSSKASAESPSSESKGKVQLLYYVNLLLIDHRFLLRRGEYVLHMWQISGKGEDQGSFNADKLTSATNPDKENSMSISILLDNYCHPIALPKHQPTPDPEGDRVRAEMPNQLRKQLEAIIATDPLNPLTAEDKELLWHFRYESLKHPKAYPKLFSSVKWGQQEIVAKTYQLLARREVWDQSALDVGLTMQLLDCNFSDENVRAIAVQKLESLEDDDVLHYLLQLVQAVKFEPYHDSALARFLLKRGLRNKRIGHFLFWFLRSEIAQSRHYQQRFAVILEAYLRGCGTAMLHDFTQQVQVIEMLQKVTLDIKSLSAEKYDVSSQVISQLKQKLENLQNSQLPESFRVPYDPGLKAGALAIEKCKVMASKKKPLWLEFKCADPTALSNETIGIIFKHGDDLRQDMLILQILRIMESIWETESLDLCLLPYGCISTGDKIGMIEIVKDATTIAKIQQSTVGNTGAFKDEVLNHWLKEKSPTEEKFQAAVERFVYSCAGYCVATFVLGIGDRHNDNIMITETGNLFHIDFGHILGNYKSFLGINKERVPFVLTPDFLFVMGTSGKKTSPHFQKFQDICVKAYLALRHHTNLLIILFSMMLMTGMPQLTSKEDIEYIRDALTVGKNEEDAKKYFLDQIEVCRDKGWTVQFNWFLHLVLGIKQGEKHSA
T7 sequence (Q04759 whole entry): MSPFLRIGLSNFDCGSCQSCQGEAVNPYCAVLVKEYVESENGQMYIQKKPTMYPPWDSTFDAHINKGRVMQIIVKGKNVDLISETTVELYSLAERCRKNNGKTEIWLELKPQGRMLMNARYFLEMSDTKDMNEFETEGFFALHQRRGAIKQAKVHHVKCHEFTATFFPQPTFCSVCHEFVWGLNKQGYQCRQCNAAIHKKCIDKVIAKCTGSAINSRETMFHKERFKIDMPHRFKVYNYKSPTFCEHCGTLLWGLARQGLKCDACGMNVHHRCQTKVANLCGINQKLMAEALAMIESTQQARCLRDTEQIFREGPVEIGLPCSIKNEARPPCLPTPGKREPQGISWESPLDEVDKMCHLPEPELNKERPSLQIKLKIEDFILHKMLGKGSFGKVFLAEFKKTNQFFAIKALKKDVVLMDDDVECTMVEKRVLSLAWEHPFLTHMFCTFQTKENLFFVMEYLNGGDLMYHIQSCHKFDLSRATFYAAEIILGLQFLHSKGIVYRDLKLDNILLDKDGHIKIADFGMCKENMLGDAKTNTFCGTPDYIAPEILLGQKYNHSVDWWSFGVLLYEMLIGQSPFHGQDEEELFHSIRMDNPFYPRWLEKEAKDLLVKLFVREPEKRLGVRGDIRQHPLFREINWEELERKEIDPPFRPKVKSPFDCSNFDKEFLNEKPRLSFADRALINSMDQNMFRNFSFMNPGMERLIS
T13 sequence (P00533 25-1210): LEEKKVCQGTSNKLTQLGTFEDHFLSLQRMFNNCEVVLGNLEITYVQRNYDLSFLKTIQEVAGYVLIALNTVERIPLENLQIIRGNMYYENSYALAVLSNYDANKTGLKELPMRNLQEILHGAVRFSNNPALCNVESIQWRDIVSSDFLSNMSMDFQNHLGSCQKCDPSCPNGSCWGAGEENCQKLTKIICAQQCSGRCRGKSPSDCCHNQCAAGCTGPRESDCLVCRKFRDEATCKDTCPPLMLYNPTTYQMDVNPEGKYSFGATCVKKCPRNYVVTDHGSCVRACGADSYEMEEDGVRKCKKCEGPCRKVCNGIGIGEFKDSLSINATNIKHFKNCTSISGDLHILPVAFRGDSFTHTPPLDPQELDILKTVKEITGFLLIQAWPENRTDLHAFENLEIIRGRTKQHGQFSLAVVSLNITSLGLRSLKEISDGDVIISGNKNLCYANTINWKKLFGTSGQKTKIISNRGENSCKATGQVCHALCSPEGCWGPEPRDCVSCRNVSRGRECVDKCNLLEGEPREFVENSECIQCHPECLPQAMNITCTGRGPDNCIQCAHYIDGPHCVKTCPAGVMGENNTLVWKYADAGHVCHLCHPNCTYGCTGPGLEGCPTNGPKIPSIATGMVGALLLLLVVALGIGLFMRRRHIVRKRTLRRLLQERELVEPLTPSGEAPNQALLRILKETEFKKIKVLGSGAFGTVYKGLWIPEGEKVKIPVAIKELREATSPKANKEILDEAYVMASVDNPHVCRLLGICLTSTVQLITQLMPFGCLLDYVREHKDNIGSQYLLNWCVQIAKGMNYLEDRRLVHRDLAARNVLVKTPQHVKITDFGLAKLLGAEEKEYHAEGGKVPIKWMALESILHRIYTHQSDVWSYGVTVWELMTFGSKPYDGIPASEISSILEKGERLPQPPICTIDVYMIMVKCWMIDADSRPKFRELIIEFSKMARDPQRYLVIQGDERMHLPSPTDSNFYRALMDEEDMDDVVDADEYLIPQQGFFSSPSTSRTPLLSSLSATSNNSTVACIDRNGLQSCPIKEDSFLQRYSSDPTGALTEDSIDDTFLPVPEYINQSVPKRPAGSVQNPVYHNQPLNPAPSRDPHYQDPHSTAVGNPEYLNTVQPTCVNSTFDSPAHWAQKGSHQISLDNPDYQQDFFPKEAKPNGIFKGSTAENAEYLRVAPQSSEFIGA

With `Br.Cc1sc(NCc2ccccc2)nc1-c1c[nH]c2ncc(Br)cc12` [Compound 41, N-Benzyl-4-(5-bromo-1H-pyrrolo[2,3-b]pyridin-3-yl)-5-methylthiazol-2-amine Hydrobromide], the remaining activity at 10 µM on CDK9/cyclin T1(h) amounted to 50%; on Mnk2(h), 17%; at PI3 Kinase (p120γ)(h) it was 80%; at mTOR(h) it was 86%; on MAPKAP-K2(h), 33%; on MST1(h), 16%. In addition, the remaining activity at 10 µM on PKCθ(h) was 98%; at IKKα(h) it was 96%; on LOK(h), 4%; at PRAK(h), 64%; on TAK1(h), 49%; at CDK1/cyclinB(h), 27%. Besides, the remaining activity at 10 µM at EGFR(h) is 50%; on Rse(h), 34%. Besides, the “Neuroprotection on CGNs (cell viability after serum/potassium deprivation)” value in assay [1] was “mitigate the physiological senescence and mortality rate”. In addition, the “LOK inhibition” value at LOK(h) is on record as “completely inhibited”. Further, in [2], the “TREM2 expression (M2 marker) vs LPS” value is “no significant variations”. For the same compound, in assay [2], the “iNOS expression (M1 marker) vs LPS” value was “notably decreased the M1 marker at both tested concentrations”.
One may read the inhibition as the drop in the measured response relative to a control, in per cent. Read a low inhibition as a weak effect. Compound `Br.Cc1sc(NCc2ccnc(Cl)c2)nc1-c1c[nH]c2ncccc12` [Compound 43, N-((2-Chloropyridin-4-yl)methyl)-5-methyl-4-(1H-pyrrolo[2,3-b]pyridin-3-yl)thiazol-2-amine Hydrobromide] had an inhibition at 10 µM against CDK9/cyclin T1(h) greater than 90%. Besides, the remaining activity at 10 µM at CDK9/cyclin T1(h) is 5%; on Mnk2(h), 27%; on PI3 Kinase (p120γ)(h), 94%; at mTOR(h), 97%; on MAPKAP-K2(h), 45%; on MST1(h), 14%. The remaining activity at 10 µM came out at 23% on PKCθ(h); 99% at IKKα(h); 4% at LOK(h); 97% on PRAK(h); 30% on TAK1(h); 20% on CDK1/cyclinB(h). Further, the remaining activity at 10 µM at EGFR(h) was determined as 86%; on Rse(h), 98%. The “Neuroprotection on CGNs (cell viability after serum/potassium deprivation)” value in assay [1] is “mitigate the physiological senescence and mortality rate”. Further, at LOK(h), the “LOK inhibition” value is “completely inhibited”. For the same compound, the “TREM2 expression (M2 marker) vs LPS” value in assay [2] is “no significant variations”. In addition, in assay [2], the “iNOS expression (M1 marker) vs LPS” value is listed as “significantly reduced the M1 marker only at the highest concentration”.

Values taken from paper PMC12406253, “Exploration of the Neuromodulatory Properties of Fyn and GSK-3β Kinases Exploiting 7‑Azaindole-Based Inhibitors” (Journal of Medicinal Chemistry, 2025).
